# ChEMBL document CHEMBL5550152, “Design, synthesis and evaluation of novel prostate-specific membrane antigen-targeted aryl [18F]fluorosulfate PET tracers” (Bioorg Med Chem, 2024)
# What was measured:
# [1] = Stability of the compound in PBS buffer measured after 4 hrs by radio-HPLC analysis; type: physicochemical
# [2] = Drug uptake in human 22Rv1 cells at 3.7 10^-2MBq measured after 4 hrs relative to control; type: ADME, cell-based; conditions: cwr22r
# [3] = Stability in mouse plasma measured after 4 hrs by radio-HPLC analysis; type: ADME, cell-free
# [4] = Drug uptake in human 22Rv1 cells at 3.7 10^-2MBq pretreated with 2-PMPA for 30 mins followed by compound addition and measured after 4 hr relative to control; type: ADME, cell-based; conditions: cwr22r
# [5] = Drug uptake in human 22Rv1 cells at 3.7 10^-2MBq measured after 1 hr; type: ADME, cell-based; conditions: cwr22r
# [6] = Drug uptake in mouse tumor xenografted with human 22Rv1 cells at 7.4 MBq, iv measured after 2 hrs by PET imaging analysis relative to control; type: ADME, organism-based, Neoplasm, CWR22R; conditions: in vivo
# [7] = Drug uptake in human 22Rv1 cells at 3.7 10^-2MBq pretreated with 2-PMPA for 30 mins followed by compound addition and measured after 1 hr; type: ADME, cell-based; conditions: cwr22r
compound,measurement,setting,value
O=C(O)CC[C@H](NC(=O)N[C@@H](CCCCNC(=O)[C@H](Cc1ccc2ccccc2c1)NC(=O)c1ccc(CNC(=O)[C@H](CCC(=O)O)NC(=O)[C@H](CCC(=O)O)NC(=O)c2ccc(OS(=O)(=O)[18F])cc2)cc1)C(=O)O)C(=O)O,Stability,[1],Stable
same,Drug uptake,[2],0.65%
same,Stability,[3],Stable
same,Drug uptake,[4],0.14%
same,Drug uptake,[5],Not Active
same,Drug uptake,[6],2.68 % ID/g
same,Drug uptake,[7],Not Active
